Reference: patent publication US20220062240A1, “METHODS OF TREATING CANCER USING A CLK INHIBITOR” (BioSplice Therapeutics, Inc., priority 2018, published 2022)
pEC50: −log10 of the molar value. Where two headings read alike, the source gives them in different places.

Key:
[1] = test system: pancreatic cancer (8 cell lines); assay: CellTiter-Glo Viability Assay, pancreatic cancer; type: cell-based; settings: Homo sapiens, inhibition of cancer cell proliferation
[2] = test system: lung cancer (4 cell lines); assay: CellTiter-Glo Viability Assay, lung cancer; type: cell-based; settings: Homo sapiens, inhibition of cancer cell proliferation
[3] = test system: ovarian cancer (4 cell lines); assay: CellTiter-Glo Viability Assay, ovarian cancer; type: cell-based; settings: Homo sapiens, inhibition of cancer cell proliferation
CLK2 = biological target: T1, CLK2 (Homo sapiens, UniProt P49760); assay: CLK2 kinase activity assay (Z-lyte, Ser/Thr 6 peptide); type: biochemical; settings: recombinant CLK2 kinase, ATP 60 μM; read-out: EC50
T1 construct: purchased Thermo Fisher (Life Technologies), Z'-LYTE Kinase Assay Kits
T1 sequence (P49760 whole entry): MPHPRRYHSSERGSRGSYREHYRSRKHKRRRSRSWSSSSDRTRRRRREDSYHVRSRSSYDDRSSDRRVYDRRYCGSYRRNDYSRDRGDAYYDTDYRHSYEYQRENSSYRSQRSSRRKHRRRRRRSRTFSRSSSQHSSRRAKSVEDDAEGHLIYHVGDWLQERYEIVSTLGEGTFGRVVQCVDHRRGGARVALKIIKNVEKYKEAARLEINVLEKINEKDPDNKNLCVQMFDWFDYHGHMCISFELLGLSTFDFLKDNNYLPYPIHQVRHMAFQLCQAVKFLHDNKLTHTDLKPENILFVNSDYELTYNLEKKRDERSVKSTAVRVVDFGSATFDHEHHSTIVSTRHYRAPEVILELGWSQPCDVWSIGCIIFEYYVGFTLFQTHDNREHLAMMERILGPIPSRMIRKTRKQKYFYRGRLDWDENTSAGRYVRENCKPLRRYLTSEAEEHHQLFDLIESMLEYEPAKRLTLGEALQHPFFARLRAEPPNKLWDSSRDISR
Protocol: All reactions were performed in duplicate.

all 50 cell lines = assay: CellTiter-Glo Viability Assay, average across all cell lines; type: cell-based; settings: Homo sapiens; across all 50 cell lines; read-out: average EC50 for inhibition of cancer cell proliferation
How it was run: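 Proliferation of a multi-tissue human cancer line panel is assessed over four days at 37° C and 5% CO2, seeding 300-3,000 cells/well. Viability is quantified by CellTiter-Glo luminescence, and EC50 values are calculated.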

MDA-MB-231-Luc = assay: CellTiter-Glo Viability Assay, breast cancer; type: cell-based; settings: Homo sapiens, 96 h; MDA-MB-231-Luc, breast cancer, four days; read-out: EC50
BT-549 = assay: CellTiter-Glo Viability Assay, breast cancer; type: cell-based; settings: Homo sapiens, 96 h; BT-549, breast cancer, four days; read-out: EC50
MCF7 = assay: CellTiter-Glo Viability Assay, breast cancer; type: cell-based; settings: Homo sapiens, 96 h; MCF7, breast cancer, four days; read-out: EC50
T47D = assay: CellTiter-Glo Viability Assay, breast cancer; type: cell-based; settings: Homo sapiens, 96 h, breast cancer, four days, read-out: EC50
DU4475 = assay: CellTiter-Glo Viability Assay, breast cancer; type: cell-based; settings: Homo sapiens, DU-4475, 96 h; DU4475, breast cancer, four days; read-out: EC50
HCC1599 = assay: CellTiter-Glo Viability Assay, breast cancer; type: cell-based; settings: Homo sapiens, 96 h; HCC1599, breast cancer, four days; read-out: EC50
ZR-75-1 = assay: CellTiter-Glo Viability Assay, breast cancer; type: cell-based; settings: Homo sapiens, 96 h; ZR-75-1, breast cancer, four days; read-out: EC50
CAMA1 = assay: CellTiter-Glo Viability Assay, breast cancer; type: cell-based; settings: Homo sapiens, CAMA-1, 96 h; CAMA1, breast cancer, four days; read-out: EC50
CLK3 = CLK3 (Homo sapiens, UniProt P49761); assay: CLK3 kinase activity assay (Z-lyte, Ser/Thr 18 peptide)
Chain of CLK3 (P49761 whole entry): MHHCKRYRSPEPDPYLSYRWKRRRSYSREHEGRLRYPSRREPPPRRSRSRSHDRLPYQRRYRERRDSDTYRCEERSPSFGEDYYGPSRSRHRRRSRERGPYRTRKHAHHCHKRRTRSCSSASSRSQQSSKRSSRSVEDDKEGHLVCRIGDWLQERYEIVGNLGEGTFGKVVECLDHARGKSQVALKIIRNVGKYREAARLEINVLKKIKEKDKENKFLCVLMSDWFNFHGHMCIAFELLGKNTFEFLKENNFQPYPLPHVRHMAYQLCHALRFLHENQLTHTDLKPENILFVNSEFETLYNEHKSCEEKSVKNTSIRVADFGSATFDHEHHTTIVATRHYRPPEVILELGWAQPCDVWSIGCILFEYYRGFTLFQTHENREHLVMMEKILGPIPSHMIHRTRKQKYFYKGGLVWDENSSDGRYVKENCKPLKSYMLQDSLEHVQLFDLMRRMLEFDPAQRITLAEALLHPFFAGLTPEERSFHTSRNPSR

[4] = test system: liver cancer (3 cell lines); assay: CellTiter-Glo Viability Assay, liver cancer; type: cell-based; settings: Homo sapiens, inhibition of cancer cell proliferation
[5] = test system: haematopoietic & lymphoid tumors (13 cell lines); assay: CellTiter-Glo Viability Assay, haematopoietic & lymphoid tumors; type: cell-based; settings: Homo sapiens, inhibition of cancer cell proliferation
[6] = test system: prostate cancer (5 cell lines); assay: CellTiter-Glo Viability Assay, prostate cancer; type: cell-based; settings: Homo sapiens
[7] = test system: colorectal cancer (6 cell lines); assay: CellTiter-Glo Viability Assay, colorectal cancer; type: cell-based; settings: Homo sapiens, inhibition of cancer cell proliferation

Compound: CS(=O)(=O)NCc1cc(F)cc(-c2nccc3[nH]c(-c4n[nH]c5ccc(-c6cncc(NC(=O)C7CCC7)c6)cc45)cc23)c1 [Compound 53]
- pEC50 ([1]; BXPC-3, BxPC3 cell line, read-out: Pancreatic cancer, EC50 BxPC3): 5.45
- pEC50 ([1]; CAPAN-1, Capan1 cell line, read-out: Pancreatic cancer, EC50 Capan1): 5.74
- pEC50 ([1]; Capan-2, Capan2 cell line, read-out: Pancreatic cancer, EC50 Capan2): 5.52
- pEC50 ([1]; MIA PaCa-2 cell line, read-out: Pancreatic cancer, EC50 MIA PaCa-2): 6.66
- pEC50 ([1]; PANC 05.04 cell line, read-out: Pancreatic cancer, EC50 PANC 05.04): 5.67
- pEC50 ([1]; PANC-1 cell line, read-out: Pancreatic cancer, EC50 PANC-1): < 5.00
- pEC50 ([1]; UPAFII cell line, read-out: Pancreatic cancer, EC50 UPAFII): 5.89
- EC50 ([2]; A-427, A427 cell line, read-out: Lung cancer, EC50 (μM) A427): 0.23 µM
- EC50 ([2]; HCC78, HCC-78 cell line, read-out: Lung cancer, EC50 (μM) HCC-78): 0.961 µM
- EC50 ([2]; NCI-H460 cell line, read-out: Lung cancer, EC50 (μM) NCI-H460): > 10 µM
- EC50 ([2]; NCI-H522 cell line, read-out: Lung cancer, EC50 (μM) NCI-H522): 0.327 µM
- EC50 ([3]; PA-1, PA1 cell line, read-out: Ovarian cancer, EC50 (μM) PA1): 2.29 µM
- EC50 ([3]; TOV112D, TOV-112D cell line, read-out: Ovarian cancer, EC50 (μM) TOV-112D): 0.446 µM
- EC50 ([3]; OV-90 cell line, read-out: Ovarian cancer, EC50 (μM) OV-90): 1.6 µM
- EC50 ([3]; OVCAR-3 cell line, read-out: Ovarian cancer, EC50 (μM) OVCAR-3): 0.145 µM
- pEC50 (CLK2): 8.01
- pEC50 (all 50 cell lines): 5.67
- pEC50 (MDA-MB-231-Luc): 5.83
- pEC50 (BT-549): 6.12
- pEC50 (MCF7): 5.19
- pEC50 (T47D): 6.34
- pEC50 (DU4475): 5.50
- pEC50 (HCC1599): 6.68
- pEC50 (ZR-75-1): 5.89
- pEC50 (CAMA1): 6.47
- pEC50 (CLK3): 7.56
- pEC50 ([4]; SNU-398, SNU398 cell line, read-out: Liver cancer, EC50 SNU398): 7.10
- pEC50 ([4]; HEPG2 cell line, read-out: Liver cancer, EC50 HEPG2): 5.68
- pEC50 ([4]; PLC/PRF/5 cell line, read-out: Liver cancer, EC50 PLC/PRF/5): < 5.00
- EC50 ([5]; DND41, DND-41 cell line, read-out: Haematopoietic & Lymphoid tumors, EC50 (μM) DND-41): 0.176 µM
- EC50 ([5]; MV4-11, MV-4-11 cell line, read-out: Haematopoietic & Lymphoid tumors, EC50 (μM) MV-4-11): 0.046 µM
- EC50 ([5]; Rec1, REC-1 cell line, read-out: Haematopoietic & Lymphoid tumors, EC50 (μM) REC-1): 7.2 µM
- EC50 ([5]; SU-DHL-4, SUDHL4 cell line, read-out: Haematopoietic & Lymphoid tumors, EC50 (μM) SUDHL4): 0.477 µM
- EC50 ([5]; HL-60 cell line, read-out: Haematopoietic & Lymphoid tumors, EC50 (μM) HL-60): 1.02 µM
- EC50 ([5]; JM1 cell line, read-out: Haematopoietic & Lymphoid tumors, EC50 (μM) JM1): 0.222 µM
- EC50 ([5]; JURKAT, Clone E6-1 cell line, read-out: Haematopoietic & Lymphoid tumors, EC50 (μM) JURKAT, Clone E6-1): 2.44 µM
- EC50 ([5]; JeKo-1 cell line, read-out: Haematopoietic & Lymphoid tumors, EC50 (μM) JeKo-1): 0.088 µM
- EC50 ([5]; KASUMI-1 cell line, read-out: Haematopoietic & Lymphoid tumors, EC50 (μM) KASUMI-1): 0.804 µM
- EC50 ([5]; Loucy cell line, read-out: Haematopoietic & Lymphoid tumors, EC50 (μM) Loucy): 0.15 µM
- EC50 ([5]; MOLT-4 cell line, read-out: Haematopoietic & Lymphoid tumors, EC50 (μM) MOLT-4): 2.02 µM
- EC50 ([5]; TF-1 cell line, read-out: Haematopoietic & Lymphoid tumors, EC50 (μM) TF-1): 4.7 µM
- EC50 ([5]; TOLEDO cell line, read-out: Haematopoietic & Lymphoid tumors, EC50 (μM) TOLEDO): 0.249 µM
- pEC50 ([6]; DU-145, read-out: Prostate cancer EC50 Du-145): 5.93
- pEC50 ([6]; PC-3, PC3 cell line, inhibition of cancer cell proliferation, read-out: Prostate cancer EC50 PC3): 6.33
- pEC50 ([6]; 22Rv1 cell line, inhibition of cancer cell proliferation, read-out: Prostate cancer EC50 22Rv1): 6.25
- pEC50 ([6]; LNCap clone FGC cell line, inhibition of cancer cell proliferation, read-out: Prostate cancer EC50 LNCap clone FGC): 5.55
- pEC50 ([6]; VCaP (Sigma) cell line, inhibition of cancer cell proliferation, read-out: Prostate cancer EC50 VCaP (Sigma)): 5.61
- EC50 ([7]; HCT-116, HCT116 cell line, read-out: Colorectal cancer, EC50 (μM) HCT116): 0.749 µM
- EC50 ([7]; HT-29, HT29 cell line, read-out: Colorectal cancer, EC50 (μM) HT29): 8.88 µM
- EC50 ([7]; SW-620, SW620 cell line, read-out: Colorectal cancer, EC50 (μM) SW620): 0.385 µM
- EC50 ([7]; DLD-1 cell line, read-out: Colorectal cancer, EC50 (μM) DLD-1): 3.57 µM
- EC50 ([7]; SW48 cell line, read-out: Colorectal cancer, EC50 (μM) SW48): 0.861 µM
- EC50 ([7]; SW480 cell line, read-out: Colorectal cancer, EC50 (μM) SW480): 0.305 µM
